Among the targets are TNIK (Homo sapiens, UniProt Q9UKE5); FGFR3 (Homo sapiens, UniProt P22607); SYK (Homo sapiens, UniProt P43405); FER (Homo sapiens, UniProt P16591).
Holding throughout (assay): biochemical
Holding throughout (parameters): KINOMEscan scanMAX competition binding, DNA-tagged kinases, qPCR read-out, percent control at 300 nM

The target in another test is T1, RIPK1 (Homo sapiens, UniProt Q13546).
T1 sequence (Q13546 1-671): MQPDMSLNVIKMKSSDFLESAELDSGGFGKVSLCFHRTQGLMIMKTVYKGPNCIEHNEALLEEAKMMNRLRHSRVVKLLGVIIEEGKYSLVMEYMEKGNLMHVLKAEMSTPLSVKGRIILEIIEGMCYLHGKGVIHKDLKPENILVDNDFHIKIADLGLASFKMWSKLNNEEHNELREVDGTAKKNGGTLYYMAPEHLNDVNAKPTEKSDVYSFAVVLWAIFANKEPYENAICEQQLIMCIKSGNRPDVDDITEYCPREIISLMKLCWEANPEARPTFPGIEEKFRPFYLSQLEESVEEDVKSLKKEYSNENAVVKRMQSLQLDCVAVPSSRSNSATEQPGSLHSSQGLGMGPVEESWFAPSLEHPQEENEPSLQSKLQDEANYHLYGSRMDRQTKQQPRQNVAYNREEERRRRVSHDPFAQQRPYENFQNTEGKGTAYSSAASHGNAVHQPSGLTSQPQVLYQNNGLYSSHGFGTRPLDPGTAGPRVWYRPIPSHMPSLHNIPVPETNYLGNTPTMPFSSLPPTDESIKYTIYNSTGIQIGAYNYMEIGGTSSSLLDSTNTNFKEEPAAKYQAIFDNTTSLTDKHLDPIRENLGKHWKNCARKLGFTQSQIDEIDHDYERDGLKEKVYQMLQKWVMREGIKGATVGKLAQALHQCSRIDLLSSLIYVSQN

The target in a further test is T2, YANK2 (Homo sapiens, UniProt Q9NY57).
T2 construct: gene STK32B

For another test, the target named is T3, PIK3C2G (Homo sapiens, UniProt O75747).
T3 sequence (O75747 1-1486): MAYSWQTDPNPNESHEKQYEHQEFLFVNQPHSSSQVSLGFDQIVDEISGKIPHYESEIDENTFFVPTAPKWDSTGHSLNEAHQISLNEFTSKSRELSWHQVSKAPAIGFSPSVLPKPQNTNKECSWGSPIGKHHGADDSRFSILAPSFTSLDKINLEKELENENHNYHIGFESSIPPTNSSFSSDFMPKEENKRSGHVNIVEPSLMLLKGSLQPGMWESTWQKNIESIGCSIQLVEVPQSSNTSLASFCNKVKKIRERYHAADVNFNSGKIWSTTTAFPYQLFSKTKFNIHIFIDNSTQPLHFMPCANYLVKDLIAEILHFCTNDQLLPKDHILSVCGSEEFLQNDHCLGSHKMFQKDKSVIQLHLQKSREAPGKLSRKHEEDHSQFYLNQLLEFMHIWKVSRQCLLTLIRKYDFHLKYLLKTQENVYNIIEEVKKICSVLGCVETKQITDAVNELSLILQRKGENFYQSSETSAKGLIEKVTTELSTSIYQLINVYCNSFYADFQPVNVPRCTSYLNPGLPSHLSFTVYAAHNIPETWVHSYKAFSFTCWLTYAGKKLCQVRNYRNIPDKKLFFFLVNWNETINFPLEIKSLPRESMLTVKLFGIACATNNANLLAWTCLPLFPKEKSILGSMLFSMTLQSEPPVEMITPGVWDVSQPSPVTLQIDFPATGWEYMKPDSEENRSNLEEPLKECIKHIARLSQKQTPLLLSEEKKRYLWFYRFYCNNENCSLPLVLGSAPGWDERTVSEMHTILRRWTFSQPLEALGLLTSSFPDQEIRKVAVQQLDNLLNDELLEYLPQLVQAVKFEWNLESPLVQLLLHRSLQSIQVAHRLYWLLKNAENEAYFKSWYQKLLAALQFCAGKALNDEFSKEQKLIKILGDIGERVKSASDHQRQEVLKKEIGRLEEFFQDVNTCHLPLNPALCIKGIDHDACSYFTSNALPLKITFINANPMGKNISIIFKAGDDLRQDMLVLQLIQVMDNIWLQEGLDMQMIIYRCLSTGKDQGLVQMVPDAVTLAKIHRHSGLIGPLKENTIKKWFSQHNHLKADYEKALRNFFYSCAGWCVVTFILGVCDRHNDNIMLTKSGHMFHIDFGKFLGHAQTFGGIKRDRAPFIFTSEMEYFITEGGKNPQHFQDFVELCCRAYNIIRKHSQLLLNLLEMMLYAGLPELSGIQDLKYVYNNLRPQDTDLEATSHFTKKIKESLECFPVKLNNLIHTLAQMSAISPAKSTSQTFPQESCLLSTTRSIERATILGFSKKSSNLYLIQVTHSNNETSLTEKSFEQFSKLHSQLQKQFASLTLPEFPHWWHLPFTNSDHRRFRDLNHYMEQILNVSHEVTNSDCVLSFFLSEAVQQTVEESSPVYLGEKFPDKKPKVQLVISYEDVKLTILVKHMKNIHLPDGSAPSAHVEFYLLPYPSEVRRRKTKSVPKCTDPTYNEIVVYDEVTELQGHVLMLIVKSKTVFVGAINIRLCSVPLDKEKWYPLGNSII

Where [1] appears, read: read-out: Percent control / Acalabrutinib.
[2] abbreviates: read-out: Percent control / Ibrutinib.
Setting [3] is: read-out: Percent control / Tirabrutinib.
The mark [4] stands for this setting: read-out: Percent control / Zanubrutinib.

Molecules are shown by their SMILES. Where two headings read alike, the source gives them in different places.

Sequence of FGFR3 (P22607 whole entry): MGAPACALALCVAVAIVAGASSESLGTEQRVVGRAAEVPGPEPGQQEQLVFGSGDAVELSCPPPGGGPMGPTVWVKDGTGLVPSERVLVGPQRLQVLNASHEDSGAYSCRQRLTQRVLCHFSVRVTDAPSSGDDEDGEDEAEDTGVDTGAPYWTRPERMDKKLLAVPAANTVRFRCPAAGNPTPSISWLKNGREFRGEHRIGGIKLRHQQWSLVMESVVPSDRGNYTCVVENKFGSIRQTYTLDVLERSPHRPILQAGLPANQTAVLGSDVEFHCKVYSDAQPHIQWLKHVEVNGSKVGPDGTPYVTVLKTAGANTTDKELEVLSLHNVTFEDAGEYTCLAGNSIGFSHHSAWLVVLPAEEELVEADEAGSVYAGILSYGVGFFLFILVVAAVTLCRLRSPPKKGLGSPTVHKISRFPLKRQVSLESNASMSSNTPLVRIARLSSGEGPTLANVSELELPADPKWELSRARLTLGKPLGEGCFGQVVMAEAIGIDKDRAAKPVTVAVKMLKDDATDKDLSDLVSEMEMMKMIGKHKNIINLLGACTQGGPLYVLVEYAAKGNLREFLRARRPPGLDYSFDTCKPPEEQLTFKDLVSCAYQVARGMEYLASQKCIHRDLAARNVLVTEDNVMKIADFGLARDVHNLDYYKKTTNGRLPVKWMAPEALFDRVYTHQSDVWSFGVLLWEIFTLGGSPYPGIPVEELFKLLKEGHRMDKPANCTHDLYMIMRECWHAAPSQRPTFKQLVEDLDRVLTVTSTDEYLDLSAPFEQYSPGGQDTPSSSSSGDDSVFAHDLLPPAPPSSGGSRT
Sequence of TNIK (Q9UKE5 whole entry): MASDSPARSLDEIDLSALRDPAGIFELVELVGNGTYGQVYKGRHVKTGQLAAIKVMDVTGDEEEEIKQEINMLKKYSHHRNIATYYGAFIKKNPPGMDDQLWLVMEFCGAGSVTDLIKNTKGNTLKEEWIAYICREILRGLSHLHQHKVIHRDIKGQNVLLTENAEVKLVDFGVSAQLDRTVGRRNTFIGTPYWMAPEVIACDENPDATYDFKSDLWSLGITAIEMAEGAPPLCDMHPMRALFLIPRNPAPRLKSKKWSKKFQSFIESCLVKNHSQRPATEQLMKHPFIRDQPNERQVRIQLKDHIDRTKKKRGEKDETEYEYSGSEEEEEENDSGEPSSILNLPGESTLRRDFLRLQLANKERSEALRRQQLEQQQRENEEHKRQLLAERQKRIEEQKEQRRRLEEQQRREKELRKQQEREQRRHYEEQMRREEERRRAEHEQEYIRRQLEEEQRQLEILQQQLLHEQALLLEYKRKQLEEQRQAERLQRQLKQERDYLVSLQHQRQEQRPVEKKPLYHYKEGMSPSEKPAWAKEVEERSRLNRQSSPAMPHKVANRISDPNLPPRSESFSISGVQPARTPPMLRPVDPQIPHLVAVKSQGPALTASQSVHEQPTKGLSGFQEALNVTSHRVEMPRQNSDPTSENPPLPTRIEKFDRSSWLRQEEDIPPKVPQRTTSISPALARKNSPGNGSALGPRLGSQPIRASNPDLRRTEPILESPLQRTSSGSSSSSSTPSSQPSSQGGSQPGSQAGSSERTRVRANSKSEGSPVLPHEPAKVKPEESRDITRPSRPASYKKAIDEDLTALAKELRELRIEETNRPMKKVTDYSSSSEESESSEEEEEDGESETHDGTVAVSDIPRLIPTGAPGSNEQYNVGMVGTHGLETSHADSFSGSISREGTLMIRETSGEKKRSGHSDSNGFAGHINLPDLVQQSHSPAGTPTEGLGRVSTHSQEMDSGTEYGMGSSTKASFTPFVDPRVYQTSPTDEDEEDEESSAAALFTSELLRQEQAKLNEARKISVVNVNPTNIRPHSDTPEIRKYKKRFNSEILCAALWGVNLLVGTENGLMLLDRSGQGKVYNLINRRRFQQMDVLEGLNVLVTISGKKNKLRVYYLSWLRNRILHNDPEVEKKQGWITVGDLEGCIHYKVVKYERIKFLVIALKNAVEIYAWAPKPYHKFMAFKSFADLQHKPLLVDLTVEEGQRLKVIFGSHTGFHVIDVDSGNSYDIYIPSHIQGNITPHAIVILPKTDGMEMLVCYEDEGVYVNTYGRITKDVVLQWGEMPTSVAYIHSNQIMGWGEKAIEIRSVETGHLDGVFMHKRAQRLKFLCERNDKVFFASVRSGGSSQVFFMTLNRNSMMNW
T2 sequence (Q9NY57 whole entry): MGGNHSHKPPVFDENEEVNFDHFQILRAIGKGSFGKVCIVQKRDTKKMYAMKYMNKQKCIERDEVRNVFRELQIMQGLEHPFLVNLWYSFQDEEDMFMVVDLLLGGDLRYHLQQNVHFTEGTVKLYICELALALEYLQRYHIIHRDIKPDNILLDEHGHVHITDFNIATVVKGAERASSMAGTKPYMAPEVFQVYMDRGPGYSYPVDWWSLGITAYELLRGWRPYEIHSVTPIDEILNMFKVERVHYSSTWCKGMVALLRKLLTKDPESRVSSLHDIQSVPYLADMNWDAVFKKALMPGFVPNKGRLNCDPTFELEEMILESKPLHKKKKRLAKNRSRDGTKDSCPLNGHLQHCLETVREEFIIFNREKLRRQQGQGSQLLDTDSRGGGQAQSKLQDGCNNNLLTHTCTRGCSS
Sequence of FER (P16591 whole entry): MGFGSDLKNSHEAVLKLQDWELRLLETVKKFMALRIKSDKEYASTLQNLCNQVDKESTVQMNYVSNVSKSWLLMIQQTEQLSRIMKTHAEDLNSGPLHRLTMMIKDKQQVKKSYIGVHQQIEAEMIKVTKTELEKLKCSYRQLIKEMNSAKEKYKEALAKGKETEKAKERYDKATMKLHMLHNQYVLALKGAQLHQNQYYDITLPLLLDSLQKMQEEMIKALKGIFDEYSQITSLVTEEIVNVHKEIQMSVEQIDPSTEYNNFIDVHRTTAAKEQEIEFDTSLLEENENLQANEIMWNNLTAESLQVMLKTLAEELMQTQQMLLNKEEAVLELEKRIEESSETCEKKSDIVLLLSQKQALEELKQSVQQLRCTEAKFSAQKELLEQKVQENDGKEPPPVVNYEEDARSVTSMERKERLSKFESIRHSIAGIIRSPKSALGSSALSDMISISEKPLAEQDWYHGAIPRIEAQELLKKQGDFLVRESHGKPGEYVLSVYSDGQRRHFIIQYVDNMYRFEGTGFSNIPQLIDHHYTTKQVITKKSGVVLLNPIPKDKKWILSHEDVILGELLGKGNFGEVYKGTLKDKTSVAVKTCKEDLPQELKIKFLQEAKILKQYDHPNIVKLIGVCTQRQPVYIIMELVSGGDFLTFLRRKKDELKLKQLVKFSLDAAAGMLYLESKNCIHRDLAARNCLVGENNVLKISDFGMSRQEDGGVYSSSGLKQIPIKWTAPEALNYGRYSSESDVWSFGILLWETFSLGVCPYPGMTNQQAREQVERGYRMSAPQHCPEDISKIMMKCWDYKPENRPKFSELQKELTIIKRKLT

As to `CC#CC(=O)N1CCC[C@H]1c1nc(-c2ccc(C(=O)Nc3ccccn3)cc2)c2c(N)nccn12` [Acalabrutinib], the remaining binding at 0.3 µM at RIPK1 (setting [1]) amounted to 93%; at TNIK (setting [1]), 79%; at FGFR3 (setting [1]) it was 95%; at SYK (setting [1]) it was 89%; at FER (setting [1]) it was 84%; at YANK2 (setting [1]), 89%. On PIK3C2G (setting [1]), the remaining binding at 0.3 µM is 74%.
As for `C=CC(=O)N1CCC[C@@H](n2nc(-c3ccc(Oc4ccccc4)cc3)c3c(N)ncnc32)C1` [Ibrutinib], the remaining binding at 0.3 µM at RIPK1 (setting [2]) is 93%; on TNIK (setting [2]), 86%; at FER (setting [2]), 94%; at YANK2 (setting [2]), 76%; on PIK3C2G (setting [2]), 97%.
Consider `CC#CC(=O)N1CC[C@@H](n2c(=O)n(-c3ccc(Oc4ccccc4)cc3)c3c(N)ncnc32)C1` [Tirabrutinib], for which the remaining binding at 0.3 µM at TNIK (setting [3]) turned out to be 92%; on FGFR3 (setting [3]) it was 92%; at SYK (setting [3]), 93%; at FER (setting [3]), 93%; at YANK2 (setting [3]), 87%; on PIK3C2G (setting [3]), 98%.
Take `C=CC(=O)N1CCC([C@@H]2CCNc3c(C(N)=O)c(-c4ccc(Oc5ccccc5)cc4)nn32)CC1` [Zanubrutinib]: the remaining binding at 0.3 µM at RIPK1 (setting [4]) was found to be 97%; at TNIK (setting [4]), 85%; at FGFR3 (setting [4]) it was 93%; on SYK (setting [4]), 81%; on FER (setting [4]) it was 100%; on YANK2 (setting [4]), 96%. In addition, the remaining binding at 0.3 µM at PIK3C2G (setting [4]) is 74%.

The values are drawn from paper PMC10004634 (PLOS ONE, 2023).
